Test results published in a melting point compilation (Tetko et al.; mined from patent text by program, amines drawn as free bases though some values may be those of a salt).

In the case of `CNC(=O)CC1CSc2c(C(=O)OC(C)C)ccn21` (stereo not given), the melting point is reported as 117 to 119 °C. For `COc1ccc(OCCCCCCO)cc1`, the melting point was 63 to 64 °C. `NC(=O)CN1Cc2ccccc2CCC1=O` gave a melting point of 156 to 158 °C. Work on `Nc1ccc(CCc2cscn2)cc1` yielded a melting point of 69 to 70 °C. `CSC(=S)NCc1c(Cl)cccc1Cl` showed a melting point of 47 °C. With `N#Cc1nc(Cl)nc(N2CCS(=O)(=O)CC2)c1Cl` the melting point was 198 to 199 °C. `COc1cc(Cl)c(N2CCN(c3cccc(C(F)(F)F)c3)CC2)c(Cl)c1` showed a melting point of 87 to 89 °C. `CCC(=O)CS(=O)(=O)c1ccc(OS(=O)(=O)c2ccc(C)cc2)cc1` showed a melting point of 104 to 106 °C. `CC(C)n1nc(C(=CN(C)C)C(=O)c2ccc(F)cc2)ccc1=O` gave a melting point of 161 to 162 °C. Compound `COc1cccc(C2(CCCCC(=O)O)CCCCC2=O)c1` (stereo not given) has a melting point of 89 to 91 °C. In the case of `CCOC(=O)c1cn(OC)c2ccccc2c1=O`, the melting point is reported as 120 to 121 °C. In the case of `COc1ccc(C(=O)C=Cc2ccc(OCc3ccccc3)cc2)c(O)c1CC=C(C)C`, the melting point is reported as 70 to 71 °C. Work on `COCOCc1nc(-c2ccccc2)oc1CCc1ccc(OCc2nc(-c3ccccc3)oc2C)cc1` yielded a melting point of 124 to 125 °C. For `CCc1nc(CCc2cccc(N)c2)sc1C`, the melting point was 64 to 65 °C. Work on `Nc1cccc(NCCCN2CCOCC2)c1` yielded a melting point of 61 to 65 °C. Compound `Cc1ccc(-c2nc(CI)c(C)o2)cc1` has a melting point of 104 to 105 °C. For `CCc1[nH]c(=S)[nH]c1-c1cc(C(C)(C)C)c(O)c(C(C)(C)C)c1`, the melting point was 279 to 281 °C. With `Nc1ccc(C=Cc2cc(=O)cc(-c3ccccc3)o2)cc1` the melting point was 192 to 194 °C. Work on `CN1Cc2ccc(Cl)cc2P1(=O)c1ccccc1` (stereo not given) yielded a melting point of 159 to 162 °C. `Cc1oc(-c2ccccc2)nc1CCc1ccc(CCCCCC2OC(=O)NC2=O)cc1` (stereo not given) gave a melting point of 116 to 117 °C. `CC(=O)Nc1ncc(C(C)=O)cc1C` gave a melting point of 115 to 116 °C. `CCNC(CO)Cc1cc(OC)cc(OC)c1` (stereo not given) showed a melting point of 82 to 83 °C. With `CC(C)(C)c1cc2c(c(C(C)(C)C)c1)OC(=O)C2c1ccccc1` (stereo not given) the melting point was 116 to 119 °C. In the case of `O=C(Cn1c(-c2cccc(Br)c2)nc2cccnc21)N1CCCCC1`, the melting point is reported as 157 to 158 °C. `CCOC(=O)C(=CNc1cnsn1)C(=O)c1cc(F)c(F)c(F)c1F` gave a melting point of 81 to 83 °C. `CCCSP(=O)(OCC)Oc1ccc2cc3ccccc3cc2c1` (stereo not given) showed a melting point of 79 to 83 °C. In the case of `COc1ccc2cc(-c3cnc(Cc4ccccc4)o3)ccc2c1`, the melting point is reported as 122 to 124 °C. For `COc1ccc2c(c1)c(Cc1nc3c(F)c(F)cc(F)c3s1)cn2CC(=O)O`, the melting point was 165 to 167 °C. Compound `CC(=O)OCC1OC(n2c(F)nc3c(N)ncnc32)C(OC(C)=O)C1OC(C)=O` (stereo not given) has a melting point of 98 to 101 °C. For `COc1cccc(-c2ccc3ccc(OC)cc3c2)c1`, the melting point was 58 to 59 °C. With `CCCCCCCCCCCCSC(=S)SSC(=S)SCCCCCCCCCCCC` the melting point was 33 to 35 °C. In the case of `Brc1nccc2ncccc12`, the melting point is reported as 112 to 113 °C. `CC1(C)OC(C=CC=Cc2ccc(Cl)cc2)=CC1=O` gave a melting point of 95 to 96 °C. With `CON(C(=Cc1ccccc1)C(N)=O)c1ccccc1` the melting point was 69 °C. Compound `COc1ccc(-c2ccc(C(=O)Nc3ccc4nc(CN5CCCC5)ccc4c3)cc2)cc1` has a melting point of 197 to 199 °C. For `CC(OCc1ccc(-c2ccc(Cl)cc2)cc1)(C(=O)O)C(F)(F)F` (stereo not given), the melting point was 135 to 136 °C. `CC(C)(C)[Si](C)(C)OC1=Cc2ccccc2C1[Si](C)(C)C1C(O[Si](C)(C)C(C)(C)C)=Cc2ccccc21` (stereo not given) showed a melting point of 92 to 94 °C. Compound `CC(C)CN1CC(O)C(O)C(O)C1CO` (stereo not given) has a melting point of 192 to 194 °C. Compound `CCOC(=O)N1C(C)=CC(C(=O)OCC)(c2cccc(OCC3CO3)c2)C=C1C` (stereo not given) has a melting point of 116 °C. `CCOC(=O)c1cc2cc(OC(F)(F)F)cc(N)c2[nH]1` showed a melting point of 190 to 191 °C. Work on `Clc1ccc2[nH]c(Sc3ccccc3)c(C3=NCCN3)c2c1` yielded a melting point of 178 °C. Compound `CCOC(=O)c1cccc(-c2ccc(Cl)c3cc(CBr)sc23)c1` has a melting point of 143 to 144 °C. With `N#Cc1ccccc1-n1nc(C2CCN(C#N)CC2)c2ccccc21` the melting point was 188 to 190 °C. `CN1CCc2c(c3ccccc3n2CCc2nc(-c3ccccc3)cs2)C1` showed a melting point of 128 to 130 °C. `CC(C)C[C@H](NC(=O)OCc1ccccc1)C(=O)N[C@@H](CC(N)=O)C(=O)NC(Cc1ccccc1)C(O)C(Cc1ccccc1)NC(=O)OC(C)(C)C` (stereo not given in full) showed a melting point of 192 to 194 °C. Work on `CC(O)(COc1ccc(S(=O)(=O)c2ccccc2)cc1)C(F)(F)F` (stereo not given) yielded a melting point of 94 to 96 °C. For `COc1ccc(C2(c3ccc(N(C)C)cc3)OC(=O)c3cc(N(C)C)ccc32)cc1` (stereo not given), the melting point was 156 to 161 °C. Work on `O=C(O)c1cc(OCc2ccccn2)c(C(=O)c2ccccc2)c([N+](=O)[O-])c1` yielded a melting point of 224 to 225 °C. In the case of `Cc1cc(C)c(OP(=O)(C(=O)c2c(C)cc(C)cc2C)c2ccccc2)c(C)c1` (stereo not given), the melting point is reported as 94 to 96 °C. `Cc1cc2c(N=C3SC[C@@H]4Cc5ccccc5CN34)cccc2cn1` gave a melting point of 181 °C. For `CSCC[C@@H](NC(=O)[C@H](Cc1ccc(O)cc1)NC(=O)OC(C)(C)C)C(=O)NCC(=O)O`, the melting point was 194 °C. Compound `CCN(CC)c1ncc(C(=O)O)c2[nH]nc(C)c12` has a melting point of 85 to 88 °C. Compound `CSc1nncc(C(C)(C)C)n1` has a melting point of 91 to 93 °C. For `N#CCCCCCCn1c(-c2ccccc2)nc(-c2ccccc2)c1-c1ccccc1`, the melting point was 104 to 106 °C. `CSc1sc(C(N)=O)c2c1-c1oc(C)nc1CC2` showed a melting point of over 300 °C. `Cc1nn(C)c(NC(=O)Nc2ccccc2)c1C1=CCCCC1` showed a melting point of 203 °C. In the case of `CN1CCc2c([nH]c3ccc(NS(=O)(=O)c4c(Cl)nc5sccn45)cc23)C1`, the melting point is reported as 232 to 233 °C. Work on `Cc1cccc(Nc2nc(-c3ccc(-c4ccccc4)cc3)cs2)n1` yielded a melting point of 218 to 222 °C. In the case of `O=[N+]([O-])c1cccc(-c2ccncc2)c1`, the melting point is reported as 109 to 110 °C. Compound `Cc1[nH]c2ccccc2c1CCN1CCN(N)CC1` has a melting point of 118 to 120 °C. With `CC(C)c1ccc(N(Cc2ccc(N(C)C)cc2)C(=O)C2CCCc3c(O)cccc32)cc1` (stereo not given) the melting point was 200 to 202 °C. With `Cc1c(F)c(F)c(F)c2c1c(=O)c(C(=O)O)cn2-c1cccs1` the melting point was 221 to 222 °C. In the case of `CCN1CCN2C(=O)c3ccccc3C12c1ccc(Cl)cc1` (stereo not given), the melting point is reported as 114 °C. Work on `NC(=O)c1cccc(C(N)=O)c1N` yielded a melting point of 284 to 288 °C. Compound `COC(=O)CCCC#Cc1cc(Cl)ccc1NS(=O)(=O)c1cc(OC)ccc1OC` has a melting point of 115 to 117 °C. In the case of `CN1CCN(c2ccc([N+](=O)[O-])cn2)CC1`, the melting point is reported as 75 to 76 °C. With `CCOCc1nc2c(N)nc(C)c(C)c2n1CCCNC(=O)N1CCOCC1` the melting point was 140 to 142 °C. `CNC(=S)NS(=O)(=O)c1cc(CCNC(=O)c2cc(Cl)ccc2OC)ccc1-c1ccco1` gave a melting point of 145 to 146 °C. In the case of `CSc1c2c3c(cccc3n1CO)C1C=C(C)CN(C)C1C2` (stereo not given), the melting point is reported as 133 to 135 °C. With `CC1(C)C=Cc2cc(C(=O)NCCN3C(=O)c4ccccc4C3=O)ccc2O1` the melting point was 183 to 185 °C. For `CCn1cc(C(=O)O)c(=O)c2cc3c(nc21)CCO3`, the melting point was 292 °C. With `O=C(O)CN1C(=O)C(=Cc2ccccc2C(=O)O)SC1=S` the melting point was over 300 °C. With `O=c1c(-c2ccccc2)coc2cc(O)c(Cl)c(Cl)c12` the melting point was over 290 °C. For `COc1cnc(CSc2nc3cc(OCC(F)(F)F)ccc3[nH]2)cc1OC`, the melting point was 55 to 57 °C. With `N#Cc1cc(-c2ccoc2)c2ccc(Sc3cccc(-c4ccccc4)n3)cc2c1` the melting point was 143 to 146 °C. Work on `O=C(Nc1ccc(-c2cnc(-c3ccc(NC(=O)C4CCCCC4)cc3)[nH]2)cc1)C1CCCCCC1` yielded a melting point of 192 to 194 °C. Work on `CCn1ncc2c(NCC3CCCCC3)c3cc(NC(C)=O)ccc3nc21` yielded a melting point of 277 to 278 °C. In the case of `CCOC(=O)c1cc(-n2c(=O)cc(C)[nH]c2=O)ccc1Cl`, the melting point is reported as 220 to 223 °C. `CC(=O)Oc1ccc(-n2nc(C(F)(F)F)cc2-c2ccc(S(C)(=O)=O)cc2)cc1` showed a melting point of 142 to 145 °C. Compound `C=Cc1cc(C)c(C(=O)N=C(N)N)cc1S(C)(=O)=O` has a melting point of 223 to 226 °C. `Cc1c(CCCCCC(=O)O)cccc1C(=O)c1ccc(Cl)cc1` showed a melting point of 82 °C. For `Clc1ccc(C2Nc3ccccc3S2)cc1` (stereo not given), the melting point was 85 to 87 °C. Work on `Cn1nnnc1-c1cnc2cc(Cl)ccc2c1O` yielded a melting point of 350 to 351 °C. In the case of `CCOC(=O)C1=C(N)OC(C)=C(C(=O)OC)C1c1cccc([N+](=O)[O-])c1` (stereo not given), the melting point is reported as 134 °C. Work on `COc1ccc(CN2C(=O)C3(COc4cc(OC)c(C#N)cc43)c3ccccc32)cc1` (stereo not given) yielded a melting point of 207 to 208 °C. In the case of `CSc1c(O)cncc1Oc1ccccc1`, the melting point is reported as 131 to 133 °C. Work on `O=c1ccn(CCO)c(C(O)c2cccc(F)c2)c1OCc1ccccc1` (stereo not given) yielded a melting point of 194 to 196 °C. Compound `O=C(c1ccc(Cl)cc1)c1cccc2cc[nH]c12` has a melting point of 148 to 149 °C. Compound `O=C1OC(=O)C2CC(F)(F)CC12` (stereo not given) has a melting point of 50 °C. In the case of `Nc1cn(-c2cccnc2)nc1C(F)(F)F`, the melting point is reported as 112 to 115 °C. Compound `Cc1cn(-c2cc(C(=O)O)cc(C(F)(F)F)c2)cn1` has a melting point of over 300 °C. Work on `N#CC1(N2CCC(O)CC2)CCSCC1` yielded a melting point of 79 to 81 °C. `Cc1cc2c(cc1C)-n1ccc(=O)nc1CC(c1ccc(-n3c(C)nc4cnccc43)cc1)=N2` showed a melting point of 192 to 194 °C. In the case of `COc1ccc(C(=C/C=C/C(=O)NCCCc2cccc3ccncc23)c2ccc(OC)cc2)cc1`, the melting point is reported as 115 to 118 °C. In the case of `Cn1cc(C2=C(c3ccsc3)C(=O)NC2=O)c2ccccc21`, the melting point is reported as 211 to 212 °C. Work on `CCc1ccc2scc(CCNC(C)=O)c2c1` yielded a melting point of 87 to 88 °C. Compound `CN1CCC(c2c[nH]c3ccc([N+](=O)[O-])cc23)CC1` has a melting point of 200 to 202 °C. With `Cc1ccc(-c2c(CN3C(=O)c4ccccc4C3=O)n(CC(C)C)c(=O)c3ccc(OCc4ccccc4)cc23)cc1` the melting point was 158 to 159 °C. Work on `COc1cc2c(cc1F)C1(CO2)C(=O)N(Cc2ccccc2)c2ccccc21` (stereo not given) yielded a melting point of 160 to 162 °C. `CCC(CC)c1nccc2c(CC(=O)O)cccc12` gave a melting point of 107 to 109 °C. With `COc1ccc(C[C@H](NC(=O)OC(C)(C)C)C(=O)c2ccc(O)cc2)cc1` the melting point was 133 to 135 °C. Compound `Cc1ccc(N(Cc2ccc(N(C)C)cc2)C(=O)Nc2c(C(C)C)cccc2C(C)C)cc1` has a melting point of 124 to 125 °C. `COc1ccc(Br)cc1C(C)(C)CCl` showed a melting point of 82 to 84 °C. `CCOC(=O)C(O)c1cc(Cl)cc2cccnc12` (stereo not given) showed a melting point of 121 to 124 °C. With `Cc1nc(N)c(C#N)cc1-c1ccccc1` the melting point was 182 to 189 °C.
